Test results taken from patent publication US20260098046A1, “RIFABUTIN ANALOGS FOR THE TREATMENT OF DISEASE” (BIOVERSYS AG, priority 2022, published 2026).
Values after ≈ are worked out from the molar mass of the structure shown. Read-outs that look alike come from different tables or passages of the source.

Experiments:
Format in all cases: cell-based
[1] = tested on: M. abscessus (ATCC 19977); assay: MIC by broth microdilution (CLSI) against M. abscessus; details: Mycobacteroides abscessus
Procedure: (§1) MIC values were determined by broth microdilution method according to the CLSI guideline. Unless otherwise mentioned, MIC against A. baumannii was performed in RPMI medium supplemented with 10% FCS. MIC against M. abscessus was performed in Middlebrook 7H9 broth supplemented with Middlebrook ADC growth supplement (10%). All other MIC were performed in standard cation adjusted Mueller Hinton broth, supplemented with Middlebrook ADC growth supplement (5%) for the slow growing mycobacteria (M. xenopi, M. kansasii and M. avium).
(§2) The following procedure applies to all species tested, except for M. xenopi. From a fresh culture plate (from overnight to several days depending on the bacteria), cells were resuspended in 0.9% (w/v) saline solution and bacterial inoculum was prepared in the respective testing medium with 5×10^5 CFU/mL. For M. xenopi, the inoculum was prepared from a fresh liquid culture (7H9+ADC). The appropriate volumes of a 10 mg/mL compound solution were directly dispensed in the 96-well assay plate using a digital dispenser to create two-fold dilution series from 32 to 0.002 μg/mL final concentration for A. baumannii and S. aureus; from 16 to 0.016 μg/mL for M. abscessus and M. avium; and from 1 to 6×10^−5 μg/mL for M. kansasii and M. xenopi. 100 μL of bacterial suspension was finally added to the compounds. Plates were covered and incubated without shaking at 35° C. for 20 hours for A. baumanii and S. aureus; at 30° C. for 4 days for M. abscessus; and at 37° C. for 7 days (at least) for M. kansasii (covered with aluminum foil to avoid light exposure), M. avium and M. xenopi. Every experiment contained an antibiotic as quality control. MIC was determined visually as the lowest concentration of a compound that prevents visible growth of the bacteria.
(§3) The in vitro activity of compounds described herein was determined against S. aureus (UAMS-1625 strain), A. baumannii (HUMC1 strain), M. abscessus (ATCC 19977), M. kansasii (ATCC12478), M. avium (ATCC25291), and M. xenopi (ATCC19250).

[2] = tested on: M. kansasii (ATCC12478); assay: MIC by broth microdilution (CLSI) against M. kansasii; details: Mycobacterium kansasii, 168 h, cation adjusted Mueller Hinton broth + ADC (5%), 37° C. for 7 days (at least), read-out: In vitro activity (MIC) M. kansasii
Procedure: as §1, §2, §3

[3] = tested on: S. aureus (UAMS-1625 strain); assay: MIC by broth microdilution (CLSI) against S. aureus; details: Staphylococcus aureus, 20 h, read-out: In vitro activity (MIC) S. aureus
Procedure: as §1, §2, §3

[4] = tested on: A. baumannii (HUMC1 strain); assay: MIC by broth microdilution (CLSI) against A. baumannii; details: Acinetobacter baumannii, RPMI medium supplemented with 10% FCS, 35° C. for 20 hours, read-out: In vitro activity (MIC) A. baumannii
Procedure: as §1, §2, §3

[5] = tested on: M. xenopi (ATCC19250); assay: MIC by broth microdilution (CLSI) against M. xenopi; details: Mycobacterium xenopi, 168 h, cation adjusted Mueller Hinton broth + ADC (5%), 37° C. for 7 days (at least), read-out: In vitro activity (MIC) M. xenopi
Procedure: as §1, §2, §3

[6] = tested on: M. avium (ATCC25291); assay: MIC by broth microdilution (CLSI) against M. avium; details: Mycobacterium avium, 168 h, cation adjusted Mueller Hinton broth + ADC (5%), 37° C. for 7 days (at least), read-out: In vitro activity (MIC) M. avium
Procedure: as §1, §2, §3

[7] = ATCC19977, 96 h, ATCC 19977, Middlebrook 7H9 broth + ADC (10%), 30° C. for 4 days, read-out: In vitro activity (MIC) M. abscessus

## CO[C@H]1/C=C/O[C@@]2(C)Oc3c(C)c(O)c4c(c3C2=O)C2=NC3(CCN(CC(C)C)CC3)NC2=C(NC(=O)/C(C)=C\C=C\[C@H](C)[C@H](O)[C@@H](C)[C@@H](O)[C@@H](C)[C@H](OC(=O)Cn2cc(-c3ccccc3)nn2)[C@@H]1C)C4=O [Compound 1]
[1]; [7]
  MIC: 0.25 µg/mL
[2]
  MIC: 0.002 µg/mL
[3]
  MIC: 0.125 µg/mL (≈ 0.126 µM)
[4]
  MIC: 0.004 µg/mL (≈ 0.00404 µM)
[5]
  MIC: 0.016 µg/mL
[6]
  MIC: 0.03 µg/mL

## COc1ccc(-c2cn(CC(=O)O[C@H]3[C@H](C)[C@H](O)[C@H](C)[C@@H](O)[C@@H](C)/C=C/C=C(/C)C(=O)NC4=C5NC6(CCN(CC(C)C)CC6)N=C5c5c(c(O)c(C)c6c5C(=O)[C@@](C)(O/C=C/[C@H](OC)[C@H]3C)O6)C4=O)nn2)cc1 [Compound 2]
[1]; [7]
  MIC: 0.25 µg/mL
[2]
  MIC: 0.002 µg/mL
[3]
  MIC: 0.125 µg/mL (≈ 0.123 µM)
[4]
  MIC: 0.016 µg/mL (≈ 0.0157 µM)
[5]
  MIC: 0.125 µg/mL
[6]
  MIC: 0.06 µg/mL

## CO[C@H]1/C=C/O[C@@]2(C)Oc3c(C)c(O)c4c(c3C2=O)C2=NC3(CCN(CC(C)C)CC3)NC2=C(NC(=O)/C(C)=C\C=C\[C@H](C)[C@H](O)[C@@H](C)[C@@H](O)[C@@H](C)[C@H](OC(=O)Cn2cc(-c3ccc(N)cc3)nn2)[C@@H]1C)C4=O [Compound 3]
[1]; [7]
  MIC: 1 µg/mL
[3]
  MIC: 0.03 µg/mL (≈ 0.0298 µM)
[4]
  MIC: ≤ 0.002 µg/mL

## CO[C@H]1/C=C/O[C@@]2(C)Oc3c(C)c(O)c4c(c3C2=O)C2=NC3(CCN(CC(C)C)CC3)NC2=C(NC(=O)/C(C)=C\C=C\[C@H](C)[C@H](O)[C@@H](C)[C@@H](O)[C@@H](C)[C@H](OC(=O)Cn2cc(-c3ccc([N+](=O)[O-])cc3)nn2)[C@@H]1C)C4=O [Compound 4]
[1]; [7]
  MIC: 0.125 µg/mL
[2]
  MIC: 0.002 µg/mL
[3]
  MIC: 0.5 µg/mL (≈ 0.483 µM)
[4]
  MIC: 0.125 µg/mL (≈ 0.121 µM)
[5]
  MIC: 0.03 µg/mL
[6]
  MIC: 0.03 µg/mL

## CO[C@H]1/C=C/O[C@@]2(C)Oc3c(C)c(O)c4c(c3C2=O)C2=NC3(CCN(CC(C)C)CC3)NC2=C(NC(=O)/C(C)=C\C=C\[C@H](C)[C@H](O)[C@@H](C)[C@@H](O)[C@@H](C)[C@H](OC(=O)Cn2cc(-c3ccc(-c5ccccc5)cc3)nn2)[C@@H]1C)C4=O [Compound 7]
[1]; [7]
  MIC: 1 µg/mL
[3]
  MIC: 8 µg/mL (≈ 7.5 µM)
[4]
  MIC: 1 µg/mL (≈ 0.938 µM)

## CO[C@H]1/C=C/O[C@@]2(C)Oc3c(C)c(O)c4c(c3C2=O)C2=NC3(CCN(CC(C)C)CC3)NC2=C(NC(=O)/C(C)=C\C=C\[C@H](C)[C@H](O)[C@@H](C)[C@@H](O)[C@@H](C)[C@H](OC(=O)Cn2cc(CCCc3ccccc3)nn2)[C@@H]1C)C4=O [Compound 10]
[1]; [7]
  MIC: 0.5 µg/mL
[3]
  MIC: 8 µg/mL (≈ 7.75 µM)
[4]
  MIC: 0.125 µg/mL (≈ 0.121 µM)

## CO[C@H]1/C=C/O[C@@]2(C)Oc3c(C)c(O)c4c(c3C2=O)C2=NC3(CCN(CC(C)C)CC3)NC2=C(NC(=O)/C(C)=C\C=C\[C@H](C)[C@H](O)[C@@H](C)[C@@H](O)[C@@H](C)[C@H](OC(=O)Cn2cc(-c3cccs3)nn2)[C@@H]1C)C4=O [Compound 11]
[1]; [7]
  MIC: 1 µg/mL
[3]
  MIC: 0.03 µg/mL (≈ 0.0301 µM)
[4]
  MIC: 0.008 µg/mL (≈ 0.00803 µM)

## CO[C@H]1/C=C/O[C@@]2(C)Oc3c(C)c(O)c4c(c3C2=O)C2=NC3(CCN(CC(C)C)CC3)NC2=C(NC(=O)/C(C)=C\C=C\[C@H](C)[C@H](O)[C@@H](C)[C@@H](O)[C@@H](C)[C@H](OC(=O)Cn2cc(C(C)(C)N)nn2)[C@@H]1C)C4=O [Compound 13]
[1]; [7]
  MIC: 1 µg/mL
[3]
  MIC: 0.125 µg/mL (≈ 0.129 µM)
[4]
  MIC: ≤ 0.002 µg/mL

## CO[C@H]1/C=C/O[C@@]2(C)Oc3c(C)c(O)c4c(c3C2=O)C2=NC3(CCN(CC(C)C)CC3)NC2=C(NC(=O)/C(C)=C\C=C\[C@H](C)[C@H](O)[C@@H](C)[C@@H](O)[C@@H](C)[C@H](OC(=O)Cn2cc(CN3CCS(=O)(=O)CC3)nn2)[C@@H]1C)C4=O [Compound 14]
[1]; [7]
  MIC: 1 µg/mL
[3]
  MIC: 0.06 µg/mL (≈ 0.0565 µM)
[4]
  MIC: ≤ 0.002 µg/mL

## CO[C@H]1/C=C/O[C@@]2(C)Oc3c(C)c(O)c4c(c3C2=O)C2=NC3(CCN(CC(C)C)CC3)NC2=C(NC(=O)/C(C)=C\C=C\[C@H](C)[C@H](O)[C@@H](C)[C@@H](O)[C@@H](C)[C@H](OC(=O)Cn2cc(CNS(C)(=O)=O)nn2)[C@@H]1C)C4=O [Compound 15]
[1]; [7]
  MIC: 1 µg/mL
[3]
  MIC: 0.125 µg/mL (≈ 0.122 µM)
[4]
  MIC: ≤ 0.002 µg/mL

## CO[C@H]1/C=C/O[C@@]2(C)Oc3c(C)c(O)c4c(c3C2=O)C2=NC3(CCN(CC(C)C)CC3)NC2=C(NC(=O)/C(C)=C\C=C\[C@H](C)[C@H](O)[C@@H](C)[C@@H](O)[C@@H](C)[C@H](OC(=O)Cn2cc(CNS(=O)(=O)c3ccccc3)nn2)[C@@H]1C)C4=O [Compound 16]
[1]; [7]
  MIC: 0.5 µg/mL
[3]
  MIC: 0.125 µg/mL (≈ 0.115 µM)
[4]
  MIC: 0.008 µg/mL (≈ 0.00739 µM)

## CO[C@H]1/C=C/O[C@@]2(C)Oc3c(C)c(O)c4c(c3C2=O)C2=NC3(CCN(CC(C)C)CC3)NC2=C(NC(=O)/C(C)=C\C=C\[C@H](C)[C@H](O)[C@@H](C)[C@@H](O)[C@@H](C)[C@H](OC(=O)Cn2cc(CNS(=O)(=O)c3ccc(C)cc3)nn2)[C@@H]1C)C4=O [Compound 17]
[1]; [7]
  MIC: 0.5 µg/mL
[3]
  MIC: 0.25 µg/mL (≈ 0.228 µM)
[4]
  MIC: 0.008 µg/mL (≈ 0.00729 µM)

## CO[C@H]1/C=C/O[C@@]2(C)Oc3c(C)c(O)c4c(c3C2=O)C2=NC3(CCN(CC(C)C)CC3)NC2=C(NC(=O)/C(C)=C\C=C\[C@H](C)[C@H](O)[C@@H](C)[C@@H](O)[C@@H](C)[C@H](OC(=O)Cn2cc(CNS(=O)(=O)c3ccc(Cl)cc3)nn2)[C@@H]1C)C4=O [Compound 18]
[1]; [7]
  MIC: 0.5 µg/mL
[3]
  MIC: 0.5 µg/mL (≈ 0.447 µM)
[4]
  MIC: 0.06 µg/mL (≈ 0.0537 µM)

## CCCc1cn(CC(=O)O[C@H]2[C@H](C)[C@H](O)[C@H](C)[C@@H](O)[C@@H](C)/C=C/C=C(/C)C(=O)NC3=C4NC5(CCN(CC(C)C)CC5)N=C4c4c(c(O)c(C)c5c4C(=O)[C@@](C)(O/C=C/[C@H](OC)[C@H]2C)O5)C3=O)nn1 [Compound 24]
[1]; [7]
  MIC: 1 µg/mL
[3]
  MIC: 0.03 µg/mL (≈ 0.0314 µM)
[4]
  MIC: 0.004 µg/mL (≈ 0.00418 µM)

## CO[C@H]1/C=C/O[C@@]2(C)Oc3c(C)c(O)c4c(c3C2=O)C2=NC3(CCN(CC(C)C)CC3)NC2=C(NC(=O)/C(C)=C\C=C\[C@H](C)[C@H](O)[C@@H](C)[C@@H](O)[C@@H](C)[C@H](OC(=O)Cn2cc(C3CC3)nn2)[C@@H]1C)C4=O [Compound 25]
[1]; [7]
  MIC: 4 µg/mL
[3]
  MIC: 0.03 µg/mL (≈ 0.0314 µM)
[4]
  MIC: ≤ 0.002 µg/mL

## CO[C@H]1/C=C/O[C@@]2(C)Oc3c(C)c(O)c4c(c3C2=O)C2=NC3(CCN(CC(C)C)CC3)NC2=C(NC(=O)/C(C)=C\C=C\[C@H](C)[C@H](O)[C@@H](C)[C@@H](O)[C@@H](C)[C@H](OC(=O)Cn2cc(C(C)(C)C)nn2)[C@@H]1C)C4=O [Compound 27]
[1]; [7]
  MIC: 2 µg/mL
[3]
  MIC: 0.06 µg/mL (≈ 0.0618 µM)
[4]
  MIC: 0.004 µg/mL (≈ 0.00412 µM)

## CO[C@H]1/C=C/O[C@@]2(C)Oc3c(C)c(O)c4c(c3C2=O)C2=NC3(CCN(CC(C)C)CC3)NC2=C(NC(=O)/C(C)=C\C=C\[C@H](C)[C@H](O)[C@@H](C)[C@@H](O)[C@@H](C)[C@H](OC(=O)Cn2cc(CC3CCCCC3)nn2)[C@@H]1C)C4=O [Compound 28]
[1]; [7]
  MIC: 0.5 µg/mL
[3]
  MIC: 0.5 µg/mL (≈ 0.495 µM)
[4]
  MIC: 0.03 µg/mL (≈ 0.0297 µM)

## CO[C@H]1/C=C/O[C@@]2(C)Oc3c(C)c(O)c4c(O)c(c(/C=N/N5CCN(C)CC5)c(O)c4c3C2=O)NC(=O)/C(C)=C\C=C\[C@H](C)[C@H](O)[C@@H](C)[C@@H](O)[C@@H](C)[C@H](OC(C)=O)[C@@H]1C [Rifampicin, reference compound]
[1]; ATCC19977, tested M. abscessus strains, read-out: MIC value on M. abscessus
  MIC: > 32 µg/mL
